≈ marks a conversion by molar mass, not a printed value.
What was measured:
[1] = system: mouse fibroblasts L929 cells; experiment: Cell viability assay (MTT, ISO 10993-5); format: cell-based; settings: 24 h, highest dilution causing 30% or higher destruction of cells
Experimental: Culture medium RPMI 1640, without phenol red (Biowest, Nuaille, France) supplemented with 10% FBS, 2 mM […] penicillin, 100 μg/mL streptomycin were used. Briefly, 1 × 10^4/well of L929 cells were placed in 96-well plates and incubated for 24 h at 37 °C and 10% CO2. Afterwards, the old culture medium was replaced with 100 μL of the compound, drug or inhibitor, diluted in culture medium and the cells treated for 24 h. Additionally, cells were treated with 0.03-4.0% concentration of DMSO as the solvent (data not shown). Then, 50 μL of 1 mg/mL of MTT solution in RPMI 1640 without phenol red was added to each well and incubated for 2 h at 37 °C and 10% CO2. Next, cell culture medium was aspirated carefully and 150 μL of DMSO was added to each well, and the plates were gently mixed. Then, 25 μL 0.1 M glycine buffer (pH 10.5) (Sigma-Aldrich) was added. The optical density at 570 nm using a multi-mode microplate reader SpectraMax® i3 (Syngen, Taipei City, Taiwan) was recorded. The results were expressed as a percentage of viability compared to untreated cells. All experiments were performed in triplicate. The reported methyl thiazolyltetrazole (MTT) method was used to study in vitro cytotoxic profile of the s-triazoles 1b-27b to the host cells (L929). Experiments were performed in accordance with the international standard IS0-10993-5:2009. […] The data for acyclic precursors 1a-27a are also included for comparison[39]^,[40].

T. gondii RH-GFP = experiment: Antiparasitic assay: T. gondii RH-GFP proliferation in Hs27 cells; format: cell-based, Toxoplasma gondii; settings: for IC50: Toxoplasma gondii, T. gondii RH-GFP in Hs27 cells, 96 h, values above highest tested concentration extrapolated, read-out: IC50Tg; for SI: selectivity index, CC30 (L929)/IC50Tg
[2] = system: human glioblastoma T98G cells; experiment: Cytotoxicity against glioblastoma cells (MTT); format: cell-based; settings: 24 h
Experimental: (§1) Cytotoxic effect of 20b was evaluated using glioblastoma (T98G) cells obtained from the American Type Culture Collection (Manassas, VA). Cells were cultured in Dulbecco’s Modified Eagle’s Medium (DMEM-high glucose) (Sigma Aldrich, St. Louis, MO), supplemented with 10% heat inactivated FBS, penicillin (100 U/mL), and streptomycin (100 μg/mL) (Sigma Aldrich, St. Louis, MO). Cells were maintained in a humidified atmosphere of 5% CO2 and 95% air at 37 °C. Stock solutions of the investigated compounds (20b and temozolomide) were prepared by dissolving solid substances in a sterile DMSO. T98G glioblastoma cells were seeded into 96-well sterile plates at a density of 1 × 10^5cells/mL. After 24 h of incubation, the medium was removed from each well and then cells were incubated for the next 24 h with different concentrations of the investigated compounds (10, 25, 35, 50, and 100 µg/mL) in the medium containing 2% FBS. Viability of T98G cells was evaluated using MTT assay, whose principle is based on the conversion of 3–(4,5-dimethylthiazol-2-yl)-2,5-diphenyltetrazolium bromide (MTT) into dark-blue formazan crystals. In brief, after 24 h incubation of cells with varying concentrations of the tested compounds, culture medium was removed from the plate. Cells were washed with PBS, and then 100 µL of medium containing 10% MTT solution (5 mg/mL) was added to each well. After 3 h incubation, 100 µL (per well) of 10% SDS buffer solution was added to solubilise formazan crystals. After overnight incubation the absorbance was measured at 570 nm using a microplate reader (Epoch, BioTek Instruments, Winooski, VT). Experiments were repeated three times, and the measurements in each experiment were run in quadruplicate. Viability of the investigated cells was expressed as % of the viability of the untreated cells.

[3] = Cytotoxicity against glioblastoma cells (MTT); format: cell-based, human; settings: human, T98G glioblastoma cells, MTT, read-out: Viability of T98G cells (% of control ± SD)
Experimental: as §1

[4] = Haemolytic activity determination; format: cell-based; settings: 0.1%, positive control, human RBCs, 37 °C, 30 min; read-out: Haemolysis (%)
Experimental: Human red blood cells (RBCs) concentrate was obtained from the Regional Blood Donation and Transfusion Centre (Lublin, Poland). RBCs concentrate (5 mL) was washed three times with sterile PBS and centrifuged at 500 g for 3 min. […] The amount of free haemoglobin in supernatants was measured spectrophotometrically at 405 nm. Negative and positive controls were performed by incubating RBCs with sterile PBS and 0.1% Triton-X, respectively. Each experiment was run in triplicate.

SMILES | melting point | CC30 [1] | IC50 (T. gondii RH-GFP) | SI (T. gondii RH-GFP) | other results
Cc1nc[nH]c1-c1n[nH]c(=S)n1-c1ccc(I)cc1 [12b, 4–(4-iodophenyl)-5–(4-methylimidazol-5-yl)-1,2,4-triazole-3-thione] | 290 °C | 483.06 µg/mL (≈ 1260 µM) | 99.1 µg/mL (≈ 259 µM) | 4.88 | 
Cc1ccccc1-n1c(-c2[nH]cnc2C)n[nH]c1=S [14b, 5–(4-methylimidazol-5-yl)-4–(2-methylphenyl)-1,2,4-triazole-3-thione] | 249.9 °C | 2414.35 µg/mL (≈ 8900 µM) | 77.3 µg/mL (≈ 285 µM) | 31.23 | 
Cc1cccc(-n2c(-c3[nH]cnc3C)n[nH]c2=S)c1 [15b, 5–(4-methylimidazol-5-yl)-4–(3-methylphenyl)-1,2,4-triazole-3-thione] | 248.7 °C | 579.43 µg/mL (≈ 2140 µM) | 79.1 µg/mL (≈ 292 µM) | 7.33 | 
Cc1ccc(-n2c(-c3[nH]cnc3C)n[nH]c2=S)cc1Cl [17b, 4–(3-chloro-4-methylphenyl)-5–(4-methylimidazol-5-yl)-1,2,4-triazole-3-thione] | 264.1 °C | 414.57 µg/mL (≈ 1360 µM) | 175 µg/mL (≈ 572 µM) | 2.37 | 
COc1ccc(-n2c(-c3[nH]cnc3C)n[nH]c2=S)cc1OC [21b, 4–(3,4-dimethoxyphenyl)-5–(4-methylimidazol-5-yl)-1,2,4-triazole-3-thione] | 213.4 °C | 318.42 µg/mL (≈ 1000 µM) | 139 µg/mL (≈ 438 µM) | 2.29 | 
CCOc1ccc(-n2c(-c3[nH]cnc3C)n[nH]c2=S)cc1 [22b, 4–(4-ethoxyphenyl)-5–(4-methylimidazol-5-yl)-1,2,4-triazole-3-thione] | 239.9 °C | 1881.91 µg/mL (≈ 6240 µM) | 64.2 µg/mL (≈ 213 µM) | 29.33 | 
Cc1nc[nH]c1-c1n[nH]c(=S)n1-c1c(C(C)C)cccc1C(C)C [24b, 4–(2,6-diisopropylphenyl)-5–(4-methylimidazol-5-yl)-1,2,4-triazole-3-thione] | 251.9 °C | 144.94 µg/mL (≈ 424 µM) | 61.7 µg/mL (≈ 181 µM) | 2.35 | 
Cc1nc[nH]c1-c1n[nH]c(=S)n1-c1ccc(N(C)C)cc1 [25b, 5–(4-methylimidazol-5-yl)-4–(4-dimethyloaminophenyl)-1,2,4-triazole-3-thione] | 288.2 °C | 755.61 µg/mL (≈ 2520 µM) | 285 µg/mL (≈ 950 µM) | 2.65 | 
CCN(CC)c1ccc(-n2c(-c3[nH]cnc3C)n[nH]c2=S)cc1 [26b, 4–(4-diethylaminophenyl)-5–(4-methylimidazol-5-yl)-1,2,4-triazole-3-thione] | 147 °C | 230.94 µg/mL (≈ 703 µM) | 157 µg/mL (≈ 478 µM) | 1.47 | 
Cc1nc[nH]c1-c1n[nH]c(=S)n1Cc1ccccc1 [27b, 4-benzyl-5–(4-methylimidazol-5-yl)-1,2,4-triazole-3-thione] | 229.5 °C | 425.30 µg/mL (≈ 1570 µM) | 148 µg/mL (≈ 545 µM) | 2.87 | 
Cn1nnc2c(C(N)=O)ncn2c1=O [Temozolomide, reference compound] |  |  |  |  | reduction of T98G cell viability ([2]; 10 µg/mL): ~33%; reduction of T98G cell viability ([2]; 100 µg/mL): ~46%; viability at 24 h, 10 µg/mL ([3]; 10 µg/mL): 66.6 ± 1.07%; viability at 24 h, 25 µg/mL ([3]; 25 µg/mL): 61.11 ± 0.45%; viability at 24 h, 35 µg/mL ([3]; 35 µg/mL): 57.3 ± 2.25%; viability at 24 h, 50 µg/mL ([3]; 50 µg/mL): 55.3 ± 1.81%; viability at 24 h, 100 µg/mL ([3]; 100 µg/mL): 53.95 ± 0.33%
CC(C)(C)CC(C)(C)c1ccc(OCCO)cc1 [Triton-X, reference compound] |  |  |  |  | hemolysis at 30 min, 0.1 % [4]: 99.78 ± 0.34%
